Here are results for 4 molecules from PMC5755735, “Discovery of indolylpiperazinylpyrimidines with dual-target profiles at adenosine A2A and dopamine D2 receptors for Parkinson's disease treatment” (PLoS ONE, 2018).

Experiment [1] concerns the target T1, human A3 receptors expressed in CHO cells (Homo sapiens, UniProt P0DMS8).
T1 sequence (P0DMS8 1-318): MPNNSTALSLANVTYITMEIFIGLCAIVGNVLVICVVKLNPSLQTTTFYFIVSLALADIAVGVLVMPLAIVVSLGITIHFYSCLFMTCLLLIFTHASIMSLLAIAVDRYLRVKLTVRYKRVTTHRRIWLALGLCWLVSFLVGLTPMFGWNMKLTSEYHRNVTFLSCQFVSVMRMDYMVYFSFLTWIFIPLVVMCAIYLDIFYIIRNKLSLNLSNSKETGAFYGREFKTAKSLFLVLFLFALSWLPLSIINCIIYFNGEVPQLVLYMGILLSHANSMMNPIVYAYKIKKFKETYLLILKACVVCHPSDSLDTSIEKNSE
Further details: method as in PMID 17126322. The settings on record: read-out: KD of radioligand at hA3; cited from earlier work.

A further experiment addresses hA2A. The settings on record: read-out: Ki hA2A; cited from earlier work.
The target of a further experiment is D2 receptor. To be noted: competition binding experiments with [3H]spiperone; cited from earlier work.
For experiment [2], the target named is T1, human A3 receptors expressed in CHO cells. Description: competition binding at human A3 adenosine receptors ([3H]HEMADO displacement). The settings on record: displacement of [3H]HEMADO, 95% confidence limits, n = 3–6, read-out: Ki hA3. On the procedure: (§1) A two-step procedure was adopted to prepare membrane for radioligand binding from cells stably transfected with human adenosine receptor subtypes (hA1, hA2A and hA3 expressed on CHO cells). Firstly, cell fragments and nuclei were removed by using low-speed centrifugation (1,000 g for 10 min). After that, crude membrane fraction from supernatant was then sedimented at 100,000 g for 30 min. The membrane pellet was subsequently re-suspended in the specific binding buffer, frozen in liquid nitrogen and stored at -80°C. For measurement of adenylyl cyclase activity in the hA2B receptors, one-step centrifugation procedure was used; the homogenate was sedimented for 30 min at 54,000 g. The so-obtained crude membrane pellet was re-suspended in 50 mM Tris/HCl, pH 7.4 and used for the adenylyl cyclase assay immediately.
(§2) Non-specific binding was determined using theophylline 1 mM. […] Non-specific binding was determined using N^6-R-phenylisopropyl adenosine (R-PIA) 100 μM. ^41 The binding of [^3H]HEMADO to CHO cells transfected with hA3 adenosine receptors was carried out as described earlier. […] Non-specific binding was determined using R-PIA 100 μM.
(§3) The assay mixture was then filtered through the built-in filter at the bottom of the 96-well microplate filtration system (Millipore Multiscreen MAFC) and washed three times with 200 μL of cold buffer. After addition of 20 μL of scintillator to the dried filter plates, the filter bound radioactivity was counted on a Wallac Micro-Beta counter. All Ki values were calculated by non-linear curve fitting with the program SCTFIT [45].
(In general: Displacement assays read how much labelled ligand stays bound in the presence of the test substance.)

Experiment [3] concerns the target human A2A receptors expressed in CHO cells (Homo sapiens, UniProt P29274). Description: competition binding at human A2A adenosine receptors ([3H]NECA displacement). On the procedure:
as §1, §2, §3

In experiment [4] the target is T2, human A1 receptors expressed in CHO cells (Homo sapiens, UniProt P30542).
T2 sequence (P30542 1-326): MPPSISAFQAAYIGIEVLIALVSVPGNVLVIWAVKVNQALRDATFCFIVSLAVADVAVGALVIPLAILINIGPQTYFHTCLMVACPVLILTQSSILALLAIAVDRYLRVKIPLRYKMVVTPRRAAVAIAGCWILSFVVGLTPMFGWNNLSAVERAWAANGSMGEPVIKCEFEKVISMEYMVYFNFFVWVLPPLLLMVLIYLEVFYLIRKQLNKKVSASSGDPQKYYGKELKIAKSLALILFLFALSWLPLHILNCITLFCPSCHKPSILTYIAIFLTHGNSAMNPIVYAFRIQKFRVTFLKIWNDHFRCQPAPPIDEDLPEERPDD
Description: competition binding at human A1 adenosine receptors ([3H]CCPA displacement). The settings on record: displacement of [3H]CCPA, 95% confidence limits, n = 3–6, read-out: Ki hA1. On the procedure: as §1, §2, §3

In experiment [5] the target is T3, human A2B receptors expressed in CHO cells (Homo sapiens, UniProt P29275).
T3 sequence (P29275 1-332): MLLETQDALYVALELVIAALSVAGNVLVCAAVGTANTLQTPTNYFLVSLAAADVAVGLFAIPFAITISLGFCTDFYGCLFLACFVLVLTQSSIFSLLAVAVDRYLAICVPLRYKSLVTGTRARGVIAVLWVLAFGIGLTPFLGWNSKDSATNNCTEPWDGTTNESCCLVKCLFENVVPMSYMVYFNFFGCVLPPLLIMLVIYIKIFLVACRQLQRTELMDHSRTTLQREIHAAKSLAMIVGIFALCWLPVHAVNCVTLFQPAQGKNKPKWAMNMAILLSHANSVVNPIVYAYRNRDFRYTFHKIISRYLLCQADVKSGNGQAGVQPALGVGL
Description: inhibition of NECA-stimulated adenylyl cyclase activity at hA2B.
Description: The membranes were incubated with about 150,000 cpm of [α-^32P]adenosine triphosphate ([α-^32P]ATP) and test compounds in different concentrations for 20 min. A non-linear regression analysis was applied to calculate the IC50 of the adenylyl cyclase activity assay. From the IC50 values, Ki values were then calculated using the Cheng and Prusoff equation [46].

pKd, pKi: −log10 of the molar value. Counter-ions that a name gives are not always drawn.

Chain of human A2A receptors expressed in CHO cells (P29274 whole entry): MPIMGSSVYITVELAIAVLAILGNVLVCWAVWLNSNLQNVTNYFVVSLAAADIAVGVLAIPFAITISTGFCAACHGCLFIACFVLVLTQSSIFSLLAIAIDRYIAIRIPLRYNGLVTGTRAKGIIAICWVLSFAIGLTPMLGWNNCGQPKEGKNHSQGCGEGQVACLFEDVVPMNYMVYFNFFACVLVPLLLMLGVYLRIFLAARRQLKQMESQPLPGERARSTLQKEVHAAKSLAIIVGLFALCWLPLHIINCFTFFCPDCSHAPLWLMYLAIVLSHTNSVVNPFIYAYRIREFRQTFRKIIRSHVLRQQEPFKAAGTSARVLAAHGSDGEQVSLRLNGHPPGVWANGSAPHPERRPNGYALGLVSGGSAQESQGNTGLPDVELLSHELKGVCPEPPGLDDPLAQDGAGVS

`CCCCC#Cc1nc(NC)c2ncn([C@@H]3O[C@H](CO)[C@@H](O)[C@H]3O)c2n1` [[^3H]HEMADO, [^3H]-2-hexyn-1-yl-N^6-methyladenosine]: the negative logarithm of the Kd (pKd) (in general, −log10 of the Kd, conventionally taken in molar units) in experiment [1] was 8.96.

Consider `CCn1c(=O)c2c(nc(/C=C/c3ccc(OC)c(OC)c3)n2C)n(CC)c1=O` [KW-6002], for which the pKi (in general, −log10 of the Ki, conventionally taken in molar units) on hA2A was 7.92.

Turning to `CCCN(CCc1ccccc1)C1CCc2c(O)cccc2C1` (racemic) [(±)-PPHT.HCl, (±)-2-(N-phenethyl-N-propyl)amino-5-hydroxytetralin hydrochloride], at D2 receptor, the pKi was 7.88.

In the case of `Cc1cc(C)nc(N2CCN(C(=O)Cc3c[nH]c4cc(F)ccc34)CC2)n1` [Compound 19, 1‐[4‐(4,6‐Dimethylpyrimidin‐2‐yl)piperazin‐1‐yl]‐2‐(6‐fluoro‐1H‐indol‐3‐yl)ethan‐1‐one], the pKi in experiment [2] is under 4.52; in experiment [3] (displacement of [3H]NECA, CHO cells, 95% confidence limits, n = 3–6, read-out: Ki hA2A), 4.57; in experiment [4] it was under 4.00; in experiment [5], under 4.70. Further, the hA1/hA2A in experiment [3] (selectivity ratio of Ki values) is reported as over 4. For the same molecule, the hA3/hA2A in experiment [3] (selectivity ratio of Ki values) is listed as over 1.
